Experimental data as given in BigSolDB 2.1.

O=Cc1cccc([N+](=O)[O-])c1
Details	solubility (mole fraction)
in DMF, 273.15 K	0.324
in DMF, 275.65 K	0.347
in DMF, 278.15 K	0.368
in DMF, 280.65 K	0.393
in DMF, 283.15 K	0.419
in DMF, 285.65 K	0.447
in DMF, 288.15 K	0.472
in DMF, 290.65 K	0.503
in DMF, 293.15 K	0.528
in DMF, 295.65 K	0.561
in DMF, 298.15 K	0.594
in DMF, 300.65 K	0.627
in DMF, 303.15 K	0.66
in acetic acid, 290.65 K	0.159
in acetic acid, 293.15 K	0.182
in acetic acid, 295.65 K	0.206
in acetic acid, 298.15 K	0.235
in acetic acid, 300.65 K	0.267
in acetic acid, 303.15 K	0.304
in acetone, 273.15 K	0.164
in acetone, 275.65 K	0.184
in acetone, 278.15 K	0.206
in acetone, 280.65 K	0.231
in acetone, 283.15 K	0.258
in acetone, 285.65 K	0.289
in acetone, 288.15 K	0.322
in acetone, 290.65 K	0.359
in acetone, 293.15 K	0.401
in acetone, 295.65 K	0.445
in acetone, 298.15 K	0.487
in acetone, 300.65 K	0.534
in acetone, 303.15 K	0.585
in acetonitrile, 273.15 K	0.165
in acetonitrile, 275.65 K	0.183
in acetonitrile, 278.15 K	0.204
in acetonitrile, 280.65 K	0.226
in acetonitrile, 283.15 K	0.251
in acetonitrile, 285.65 K	0.277
in acetonitrile, 288.15 K	0.307
in acetonitrile, 290.65 K	0.338
in acetonitrile, 293.15 K	0.371
in acetonitrile, 295.65 K	0.409
in acetonitrile, 298.15 K	0.449
in acetonitrile, 300.65 K	0.49
in acetonitrile, 303.15 K	0.532
in cyclohexane, 283.15 K	0.00147
in cyclohexane, 285.65 K	0.00175
in cyclohexane, 288.15 K	0.00204
in cyclohexane, 290.65 K	0.0024
in cyclohexane, 293.15 K	0.00283
in cyclohexane, 295.65 K	0.00334
in cyclohexane, 298.15 K	0.00394
in cyclohexane, 300.65 K	0.00456
in cyclohexane, 303.15 K	0.0053
in ethanol, 273.15 K	0.0358
in ethanol, 275.65 K	0.0416
in ethanol, 278.15 K	0.048
in ethanol, 280.65 K	0.0555
in ethanol, 283.15 K	0.0637
in ethanol, 285.65 K	0.0736
in ethanol, 288.15 K	0.0844
in ethanol, 290.65 K	0.0959
in ethanol, 293.15 K	0.109
in ethanol, 295.65 K	0.125
in ethanol, 298.15 K	0.141
in ethanol, 300.65 K	0.161
in ethanol, 303.15 K	0.183
in ethyl acetate, 273.15 K	0.146
in ethyl acetate, 275.65 K	0.164
in ethyl acetate, 278.15 K	0.185
in ethyl acetate, 280.65 K	0.206
in ethyl acetate, 283.15 K	0.229
in ethyl acetate, 285.65 K	0.256
in ethyl acetate, 288.15 K	0.285
in ethyl acetate, 290.65 K	0.316
in ethyl acetate, 293.15 K	0.348
in ethyl acetate, 295.65 K	0.385
in ethyl acetate, 298.15 K	0.425
in ethyl acetate, 300.65 K	0.465
in ethyl acetate, 303.15 K	0.511
in isopropanol, 273.15 K	0.00629
in isopropanol, 275.65 K	0.00735
in isopropanol, 278.15 K	0.0086
in isopropanol, 280.65 K	0.00997
in isopropanol, 283.15 K	0.0115
in isopropanol, 285.65 K	0.0133
in isopropanol, 288.15 K	0.0153
in isopropanol, 290.65 K	0.0176
in isopropanol, 293.15 K	0.0203
in isopropanol, 295.65 K	0.0232
in isopropanol, 298.15 K	0.0267
in isopropanol, 300.65 K	0.0305
in isopropanol, 303.15 K	0.035
in methanol, 273.15 K	0.0889
in methanol, 275.65 K	0.103
in methanol, 278.15 K	0.118
in methanol, 280.65 K	0.136
in methanol, 283.15 K	0.156
in methanol, 285.65 K	0.178
in methanol, 288.15 K	0.203
in methanol, 290.65 K	0.23
in methanol, 293.15 K	0.261
in methanol, 295.65 K	0.295
in methanol, 298.15 K	0.332
in methanol, 300.65 K	0.373
in methanol, 303.15 K	0.419
in n-butanol, 273.15 K	0.0206
in n-butanol, 275.65 K	0.0235
in n-butanol, 278.15 K	0.0274
in n-butanol, 280.65 K	0.0314
in n-butanol, 283.15 K	0.0357
in n-butanol, 285.65 K	0.041
in n-butanol, 288.15 K	0.0466
in n-butanol, 290.65 K	0.0529
in n-butanol, 293.15 K	0.0596
in n-butanol, 295.65 K	0.0677
in n-butanol, 298.15 K	0.0764
in n-butanol, 300.65 K	0.086
in n-butanol, 303.15 K	0.0973
in n-propanol, 273.15 K	0.0254
in n-propanol, 275.65 K	0.0293
in n-propanol, 278.15 K	0.0338
in n-propanol, 280.65 K	0.0385
in n-propanol, 283.15 K	0.0442
in n-propanol, 285.65 K	0.0505
in n-propanol, 288.15 K	0.0575
in n-propanol, 290.65 K	0.0648
in n-propanol, 293.15 K	0.0729
in n-propanol, 295.65 K	0.0833
in n-propanol, 298.15 K	0.0942
in n-propanol, 300.65 K	0.106
in n-propanol, 303.152 K	0.12
in toluene, 273.15 K	0.0957
in toluene, 275.65 K	0.11
in toluene, 278.15 K	0.126
in toluene, 280.65 K	0.144
in toluene, 283.15 K	0.167
in toluene, 285.65 K	0.188
in toluene, 288.15 K	0.215
in toluene, 290.65 K	0.245
in toluene, 293.15 K	0.276
in toluene, 295.65 K	0.31
in toluene, 298.15 K	0.347
in toluene, 300.65 K	0.385
in toluene, 303.15 K	0.428
